From US6638726B1, “Screening methods for compounds useful in the treatment of polycystic kidney disease” (Mount Sinai School of Medicine of New York University, priority 2000, dated 2003)

Test system: ADPKD cells
Assay: modified Boyden chamber motility assay
Assay type: cell-based, human
Conditions: cells treated for 2 days with 10 mM LiCl, migration through 8 μM pores, 1%-5% FBS gradient, fluorescent microplate quantification, compared with NHCT and NHTAL controls
Experimental: To assay for cell motility a number of different assays may be used, including but not limited to, standard migratory assays on slides or using modified Boyden chambers. Such assay systems are described in further detail in a working example of the present specification (See, Example 7).
Using a modified Boyden chamber motility assay human renal epithelial cells and ADPKD cells were plated (5000 cells/membrane) in the upper chamber and allowed to migrate through 8 μM pores for 0-15 hours in response to a 1%-5% FBS gradient. All primary and differentiated conditionally immortalized cell types migrate in a a time-dependent fashion but more normal adult collecting tubule (NHCT) and thick ascending limb (NHTAL) cells appeared in the lower chamber than ADPKD epithelia, 975±10 (NHCT), 1060±(NHTAL) versus 426±20 (ADPKD). The effect of lithium on renal epithelial cell motility was assessed. Calcein-AM (Goldberg, A. Fluorescent Blocking Membrane Enhances Analyses of Cell-Based Assay. Becton Dickinson Techniques Bulletin #429) labeled cells were treated for 2 days±10 mM LICL and then plated onto membranes as described above.

SMILES: [Cl-].[Li+] [LiCl, lithium chloride]
- motility of ADPKD cells: significantly increased the motility of ADPKD cells
- motility of ADPKD cells (listed as Lithium): increases the motility of ADPKD cells to the level observed for NHCT (CT) cells
- motility of ADPKD cells (listed as lithium): decreased epithelial cell motility can be reversed
- motility of ADPKD cells (listed as lithium chloride): increase the motility of ADPKD cells to almost normal levels
